In brackets after ≈: the same amount, converted by molar mass.
Key:
Type in all cases: physicochemical
[1] = Apparent solubility in organic solvents (visual); details: for solubility: thermodynamic from solid
Procedure: Solubility: 2a substance was equilibrated with organic solvents to visually test the apparent solubility. The experiment was terminated once or if the target of 20 mg/mL was achieved.

[2] = Crystallization from hot saturated solutions, solid form by XRPD; details: for Solid form: EtOH, XRPD
Procedure: Crystallization from hot saturated solutions: About 100 mg 2a was dissolved with minimal amount of solvent at about 60° C. The solution was filtrated and separated into two portions. One portion was put in ice bath and agitated till the end of the experiment; the other portion was cooled down naturally. The precipitates were collected on a filter, dried and analyzed by XRPD.

[3] = Solvent evaporation, solid form by XRPD
Procedure: Solvent evaporation: About 20 mg 2a was dissolved in organic solvents. The solution was filtrated and dried in the air. The obtained solid part from the evaporation process was analyzed by XRPD.

[4] = Equilibration with solvent at 25° C. and 50° C. (slurry), solid form by XRPD
Procedure: Equilibration with solvent at 25° C. and 50° C.: About 50 mg of 2a was equilibrated with 1 ml solvents at 25° C. and 50° C. After stirring for 1 day and 7 days, the suspensions were centrifuged. The solid part was collected and analyzed by XRPD, then dried in the air for 10 min and analyzed by XRPD. After equilibrium with solvent at 25° C. and 50° C. for 1 and 7 days, the crystal form was not changed. […] The XRPD spectra of the solid equilibrated with each solvent listed in Table 12, at 25° C. and 50° C., are shown overlaid that of undisturbed 2a in FIG. 8 through FIG. 14.

[5] = Precipitation by addition of anti-solvent, solid form by XRPD
Procedure: The precipitates were collected and analyzed by XRPD.
2a was dissolved in ACN or MeOH, and water or heptane was added as anti-solvent. […] The XRPD pattern of compound 2a (bottom) and compound 2a dissolved in ACN then precipitated with heptane (top) is shown in FIG. 6. The XRPD pattern of compound 2a (bottom trace) and compound 2a dissolved in MeOH then precipitated with heptane (top trace) or water (center trace) is shown in FIG. 7.

For COc1ccc2c(c1)CCN1Cc3c(ccc(OC)c3OS(=O)(=O)c3cccc(F)c3)C[C@H]21 [Compound 2a], the solubility ([1]; 50% EtOH (aq), aqueous with cosolvent or surfactant or cyclodextrin) was less than 990 µg/mL, the “Solubility (mg/ml)” value ([1]; ACN) was 6.17~18.5 mg/ml and the solubility ([1]; EtOH, organic solvent or mixture) was 2100 to 3150 µg/mL (≈ 4.47 to 6.71 mM). It also gave a solubility ([1]; THF, organic solvent or mixture) of less than 1140 µg/mL, a solubility ([1]; acetone, organic solvent or mixture) of 2220 to 3330 µg/mL (≈ 4.73 to 7.09 mM) and a solubility ([1]; acetonitrile, organic solvent or mixture, ACN) of 6170 to 18500 µg/mL (≈ 13.1 to 39.4 mM). It also gave a solubility ([1]; ethyl acetate, organic solvent or mixture) of less than 1800 µg/mL, a solubility ([1]; heptane, organic solvent or mixture) of less than 1430 µg/mL and a solubility ([1]; methanol, organic solvent or mixture, MeOH) greater than 17000 µg/mL. For the same molecule, the solubility ([1]; water) was less than 1080 µg/mL, the Solid form ([2]; quick (ice bath)) was “partially crystalline” and the Solid form ([2]; slow (cooled down naturally)) was “no crystal, failed”. For the same molecule, the “Solid form after crystallization from hot saturated solutions” value ([2]; dissolved at about 60° C., cooled) was “partially crystalline”, the “Solid form after evaporation” value ([3]; ACN) was “Amorphous” and the “Solid form after evaporation” value ([3]; Acetone) was “Amorphous”. For the same molecule, the “Solid form after evaporation” value ([3]; EtOH) was “Amorphous”, the “Solid form after evaporation” value ([3]; MeOH) was “Amorphous” and the “Crystal form after equilibration with solvent” value ([4]; 25° C. and 50° C., 1 and 7 days) was “not changed”. For the same molecule, the Slurry solid form ([4]; 50% EtOH (aq), 25° C.-1 day) was “Crystal, no change”, the Slurry solid form ([4]; 50% EtOH (aq), 25° C.-7 day) was “Crystal, no change” and the Slurry solid form ([4]; 50% EtOH (aq), 50° C.-1 day) was “partially crystalline”. For the same molecule, the Slurry solid form ([4]; ACN, 25° C.-1 day) was “Crystal, no change”, the Slurry solid form ([4]; ACN, 25° C.-7 day) was “Crystal, no change” and the Slurry solid form ([4]; ACN, 50° C.-1 day) was “Crystal, no change”. For the same molecule, the Slurry solid form ([4]; Acetone, 25° C.-1 day) was “Crystal, no change”, the Slurry solid form ([4]; Acetone, 25° C.-7 day) was “Crystal, no change” and the Slurry solid form ([4]; Acetone, 50° C.-1 day) was “Crystal, no change”. The Slurry solid form ([4]; EtOAc, 25° C.-1 day) was “Crystal, no change”, the Slurry solid form ([4]; EtOAc, 25° C.-7 day) was “Crystal, no change” and the Slurry solid form ([4]; EtOAc, 50° C.-1 day) was “Crystal, no change”. For the same molecule, the Slurry solid form ([4]; EtOH, 25° C.-1 day) was “Crystal, no change”, the Slurry solid form ([4]; EtOH, 25° C.-7 day) was “Crystal, no change” and the Slurry solid form ([4]; EtOH, 50° C.-1 day) was “Crystal, no change”. The Slurry solid form ([4]; IPA, 25° C.-1 day) was “Crystal, no change”, the Slurry solid form ([4]; IPA, 25° C.-7 day) was “Crystal, no change” and the Slurry solid form ([4]; MeOH, 25° C.-1 day) was “Crystal, no change”. For the same molecule, the Slurry solid form ([4]; MeOH, 25° C.-7 day) was “Crystal, no change”, the Slurry solid form ([4]; MeOH, 50° C.-1 day) was “Clear solution” and the Slurry solid form ([4]; THF, 25° C.-1 day) was “Crystal, no change”. The Slurry solid form ([4]; THF, 25° C.-7 day) was “Crystal, no change”, the Slurry solid form ([4]; THF, 50° C.-1 day) was “Crystal, no change” and the Slurry solid form ([4]; Water, 25° C.-1 day) was “Crystal, no change”. The Slurry solid form ([4]; Water, 25° C.-7 day) was “Crystal, no change”, the Slurry solid form ([4]; Water, 50° C.-1 day) was “partially crystalline” and the “Crystal form after precipitation by anti-solvent” value ([5]; heptane as anti-solvent (ACN or MeOH solution)) was “not changed”. For the same molecule, the Solid form ([5]; solvent ACN, anti-solvent Heptane (6 volumes)) was “Crystal, no change”, the Solid form ([5]; solvent ACN, anti-solvent Water (6 volumes)) was “No crystal, failed” and the Solid form ([5]; solvent MeOH, anti-solvent Heptane (3 volumes)) was “Crystal, no change”. For the same molecule, the Solid form ([5]; solvent MeOH, anti-solvent Water (2 volumes)) was “Amorphous” and the “Crystal form after precipitation by anti-solvent” value ([5]; water added to MeOH solution) was “transformed to amorphous”.

Source: patent US20230279002A1, “Polymorphs of Crystalline Forms of 3,10-dimethoxy-5,8,13,13a-tetrahydro-6H-isoquinolino[3,2-a]isoquinolin-9-yl 3-fluorobenzenesulfonate and Salts Thereof” (CVI Pharmaceuticals Limited, priority 2020, published 2023)
